Patent US20020193564A1, “Oligomeric chaperone proteins” (priority 1999, published 2002)

Tests used:
[1] = tested on: COS-7, PC12, and SH-SY5Y cells; conditions: treatment with proteasome inhibitor; cited from earlier work
COS-7 cells = conditions: overexpression; cited from earlier work
[2] = tested on: mutant Huntingdon exon 1-expressing PC12 and SH-SY5Y cells; conditions: overexpression; cited from earlier work
GroES = GroES (Escherichia coli, UniProt P0A6F9); conditions: ELISA, FIG. 5a
Experimental: GroES Binding and Competition Assays by ELISA (Enzyme-Linked Immunosorbant Assay).
Proteins were coated onto plastic microtitre plates (Maxisorb, Nunc) overnight at 4° C. at a concentration of 10 μg/mL in carbonate buffer (50 mM NaHCO3, pH 9.6). Plates were blocked for 1 hour at 25° C. with 2% Marvel in PBS (phosphate buffered saline: 25 mM NaH2PO4, 125 mM NaCl, pH 7.0). GroES, at 10 μg/mL in 100 μL of 10 mM Tris-HCl, 200 mM KCl, pH 7.4, were bound at 25° C. for 1 hour. Bound GroES were detected with rabbit anti-GroES antibodies (Sigma) followed by anti-rabbit immunoglobulins horseradish peroxidase conjugated antibodies (Sigma).

[3] = biological target: T1, heat- and dithiothreitol-denatured mtMDH (Sus scrofa, UniProt P00346); experiment: In vitro refolding of denatured mtMDH; type: biochemical, pig; conditions: FIG. 7b
T1 construct: Boehringer-Mannheim); purchased Boehringer-Mannheim; host or cells: pig heart
T1 sequence (P00346 25-338): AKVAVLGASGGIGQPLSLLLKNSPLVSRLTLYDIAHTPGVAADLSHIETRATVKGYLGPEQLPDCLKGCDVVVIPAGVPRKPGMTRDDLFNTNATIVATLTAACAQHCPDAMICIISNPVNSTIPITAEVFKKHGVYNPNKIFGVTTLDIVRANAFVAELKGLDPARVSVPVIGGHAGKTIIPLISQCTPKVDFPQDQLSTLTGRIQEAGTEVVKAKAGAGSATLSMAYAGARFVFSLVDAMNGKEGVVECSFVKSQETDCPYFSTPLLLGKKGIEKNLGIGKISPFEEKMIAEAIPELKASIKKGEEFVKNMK
Experimental: In vitro Refolding Experiments.
Refolding assays of pig heart mitochondrial malate dehydrogenase (mtMDH; Boehringer-Mannheim) and aggregation protection were carried out essentially as described (Peres Ben-Zvi, A. P., Chatellier, J., Fersht, A. R. & Goloubinoff, P. (1998) Proc. Natl. Acad. Sci. U.S.A. 95, 15275-15280). The concentrations of MC7 used were between 8-16 μM (reporter to protomer).

bacteriophage λ = experiment: Growth of bacteriophage λ in transformed groEL strains; type: cell-based, bacteriophage λ (b2cI) in E. coli; conditions: SV1 (groE^+)
Excerpt: The E. Coli strains used in this study were: C41(DE3), a mutant of BL21(DE3) capable of expressing toxic genes (Miroux, B. & Walker, J. E. (1996) J. Mol. Biol. 260, 289-298); SV2 (B178groEL44), SV3 (B178groEL59) and SV6 (B178groEL673): isogenic strains carrying temperature-sensitive alleles of groEL; SV1(=B178) (Georgopoulos, C., Hendrix, R. W., Casjens, S. R. & Kaiser, A. D. (1973) J. Mol. Biol. 76, 45-60), A190 (ΔgroEL::kan^R) [pBAD-EL] (Ivic, A., Olden, D., Wallington, E. J. & Lund, P. A. (1997) Gene 194, 1-8), and TG1 (Gibson, T. J. (1984) Ph.D. thesis, University of Cambridge, U.K). Bacteriophage λb2cI (Zeilstra-Ryalls, J., Fayet, O., Baird, L. & Georgopoulos, C. (1993) J. Bacteriol. 175, 1134-1143) was used according to standard methods (Arber, W., Enquist, L., Hohn, B., Murray, N. E. & Murray, K. (1983) in Lambda II., ed. R. W. Hendrix, J. W. r., F. W. Stahl and R. A. Weisberg (Cold Spring Harbor Laboratory, Cold Spring Harbor, N.Y.), pp. 433-466); plaque formation was assayed at 30° C. T4D0, a derivative of bacteriophage T4 (Zeilstra-Ryalls, J., Fayet, O., Baird, L. & Georgopoulos, C. (1993) J. Bacteriol. 175, 1134-1143), was used according to standard methods (Karam, J. D. (1994) Molecular biology of bacteriophage T4. (American Society for Microbiology, Washington, D.C.)); plaque formation was assayed at 37° C.

Sequence of GroES (P0A6F9 whole entry): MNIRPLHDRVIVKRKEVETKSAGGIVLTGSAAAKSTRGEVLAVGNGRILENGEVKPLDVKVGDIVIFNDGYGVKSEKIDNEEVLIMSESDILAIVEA

In the case of CC(=O)N[C@@H](CSC(=O)[C@]1([C@@H](O)C(C)C)NC(=O)[C@H](C)[C@@H]1O)C(=O)O [lactacystin], the “proportion of cells with inclusions of mutant huntingtin exon 1” value [1] is listed as “increased the proportion of cells with inclusions”.

For HDJ-2/HSDJ: a human HSP40 homologue, the “inclusion formation in COS-7 cells” value (COS-7 cells) is given as “increased inclusion formation” and the “proportion of cells with inclusions / inclusion formation” value [2] is given as “did not modify inclusion formation”.

B1: GroEL(191-376): monomeric minichaperone, apical domain of GroEL, residues 191 to 376 (protein, UniProt P0A6F5 191-376, looked up, fragment)
chain: EGMQFDRGYLSPYFINKPETGAVELESPFILLADKKISNIREMLPVLEAVAKAGKPLLIIAEDVEGEALATLVVNTMRGIVKVAAVKAPGFGDRRKAMLQDIATLTGGTVISEEIGMELEKATLEDLGQAKRVVINKDTTTIIDGVGEEAAIQGRVAQIRQQIEEATSDYDREKLQERVAKLAGGV
modifications: apical domain
In the case of B1, the “Binding to GroES” value (GroES) is reported as “did not detectably bind”, the “enhancing the refolding rate of mtMDH” value [3] is reported as “ineffective in enhancing the refolding rate” and the “Effect of over-expression on λ growth / plaque counts” value (bacteriophage λ) is reported as “no effect on plaque counts”.
